Measured values as given in publication PMC4406325 (MedChemComm, 2014).

test system: KB (nasopharyngeal carcinoma); experiment: SRB cytotoxic activity assay, KB; type: cell-based, human; details: 3 days in culture, average of three independent measurements

SMILES | GI50 KB [µM]
Fc1cnc(Nc2cccc(N3CCOCC3)c2)nc1Nc1cc(Cl)cc(Cl)c1 [Compound 6a] | 14.80 ± 1.02
Fc1cnc(Nc2cccc(N3CCOCC3)c2)nc1Nc1ccc(Cl)c(Cl)c1 [Compound 6b] | > 10
Fc1ccc(Nc2nc(Nc3cccc(N4CCOCC4)c3)ncc2F)cc1 [Compound 6c] | > 10
Fc1cnc(Nc2cccc(N3CCOCC3)c2)nc1Nc1c(F)cccc1F [Compound 6d] | > 10
COc1ccc(N2CCOCC2)cc1Nc1ncc(F)c(Nc2ccc(F)cc2)n1 [Compound 6e] | > 10
COc1ccc(N2CCN(C)CC2)cc1Nc1ncc(F)c(Nc2ccc(F)cc2)n1 [Compound 6f] | 0.96 ± 0.21
O=C(Nc1cccc(Nc2ncc(F)c(Nc3ccc(F)cc3)n2)c1)c1ccccc1 [Compound 9a] | > 10
O=C(Nc1cccc(Nc2ncc(F)c(Nc3ccc(F)cc3)n2)c1)c1cccc([N+](=O)[O-])c1 [Compound 9b] | 15.10 ± 1.16
CN(C)c1ccc(C(=O)Nc2cccc(Nc3ncc(F)c(Nc4ccc(F)cc4)n3)c2)cc1 [Compound 9c] | > 10
O=C(Nc1cccc(Nc2ncc(F)c(Nc3ccc(F)cc3)n2)c1)c1ccncc1 [Compound 9d] | 5.28 ± 3.49
O=C(Nc1cccc(Nc2ncc(F)c(Nc3ccc(F)cc3)n2)c1)c1cnccn1 [Compound 9e] | 23.55 ± 3.92
CN1CCC(C(=O)Nc2cccc(Nc3ncc(F)c(Nc4ccc(F)cc4)n3)c2)CC1 [Compound 9f] | 1.70 ± 0.80
CN(C)CC(=O)Nc1cccc(Nc2ncc(F)c(Nc3ccc(F)cc3)n2)c1 [Compound 9g] | 1.26 ± 0.05
COCC(=O)Nc1cccc(Nc2ncc(F)c(Nc3ccc(F)cc3)n2)c1 [Compound 9h] | 6.25 ± 1.38
O=C(c1cccc(Nc2ncc(F)c(Nc3ccc(F)cc3)n2)c1)N1CCOCC1 [Compound 11a] | 14.58 ± 2.93
CN1CCN(C(=O)c2cccc(Nc3ncc(F)c(Nc4ccc(F)cc4)n3)c2)CC1 [Compound 11b] | 12.58 ± 3.05

SMILES | GI50 KB [µM]
O=C(c1cccc(Nc2ncc(F)c(Nc3ccc(F)cc3)n2)c1)N1CCCCC1 [Compound 11c] | 14.78 ± 2.53
CS(=O)(=O)N1CCN(C(=O)c2cccc(Nc3ncc(F)c(Nc4ccc(F)cc4)n3)c2)CC1 [Compound 11d] | 20.29 ± 4.09
CC(=O)N1CCCN(C(=O)c2cccc(Nc3ncc(F)c(Nc4ccc(F)cc4)n3)c2)CC1 [Compound 11e] | 14.88 ± 2.20
CN(C)CCNC(=O)c1cccc(Nc2ncc(F)c(Nc3ccc(F)cc3)n2)c1 [Compound 11f] | 4.16 ± 0.69
O=C(NCCO)c1cccc(Nc2ncc(F)c(Nc3ccc(F)cc3)n2)c1 [Compound 11g] | 12.39 ± 2.48
O=C(Nc1ccc(C(F)(F)F)cc1)c1cccc(Nc2ncc(F)c(Nc3ccc(F)cc3)n2)c1 [Compound 11h] | > 10
O=C(Nc1ccc(N2CCOCC2)cc1)c1cccc(Nc2ncc(F)c(Nc3ccc(F)cc3)n2)c1 [Compound 11i] | > 10
COc1ccc(NC(=O)c2cccc(Nc3ncc(F)c(Nc4ccc(F)cc4)n3)c2)cc1 [Compound 11j] | > 10
COc1cc(NC(=O)c2cccc(Nc3ncc(F)c(Nc4ccc(F)cc4)n3)c2)cc(OC)c1 [Compound 11k] | 15.47 ± 1.58
O=C(Nc1ccc2c(c1)OCO2)c1cccc(Nc2ncc(F)c(Nc3ccc(F)cc3)n2)c1 [Compound 11l] | 14.08 ± 0.79
O=C(Nc1cc(Cl)cc(Cl)c1)c1cccc(Nc2ncc(F)c(Nc3ccc(F)cc3)n2)c1 [Compound 11m] | 20.08 ± 1.06
O=C(Nc1ccccn1)c1cccc(Nc2ncc(F)c(Nc3ccc(F)cc3)n2)c1 [Compound 11n] | 20.03 ± 10.96
O=C(Nc1nccs1)c1cccc(Nc2ncc(F)c(Nc3ccc(F)cc3)n2)c1 [Compound 11o] | > 10
Cn1ccnc1NC(=O)c1cccc(Nc2ncc(F)c(Nc3ccc(F)cc3)n2)c1 [Compound 11p] | 14.57 ± 1.70
CN1CC[C@H](c2c(O)cc(O)c3c(=O)cc(-c4ccccc4Cl)oc23)[C@H](O)C1 [FVP, flavopiridol, reference compound] | 0.16 ± 0.007

biological target: CDK9/cyclin T1 (Homo sapiens, UniProt P50750); experiment: CDK9/Cyclin T1 kinase assay; type: biochemical; details: among all compounds tested at molecular level
Sequence (P50750 whole entry): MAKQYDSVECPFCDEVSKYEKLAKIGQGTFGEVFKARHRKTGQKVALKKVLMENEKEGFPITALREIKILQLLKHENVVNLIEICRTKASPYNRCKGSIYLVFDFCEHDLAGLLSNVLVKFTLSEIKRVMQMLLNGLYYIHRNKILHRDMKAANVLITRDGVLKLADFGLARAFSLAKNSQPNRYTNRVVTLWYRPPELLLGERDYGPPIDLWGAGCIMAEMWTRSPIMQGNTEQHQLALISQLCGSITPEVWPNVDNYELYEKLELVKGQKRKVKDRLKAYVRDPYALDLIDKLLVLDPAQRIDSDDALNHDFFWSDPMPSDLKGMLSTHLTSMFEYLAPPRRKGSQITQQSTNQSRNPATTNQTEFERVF
Sequence (O60563 whole entry partner): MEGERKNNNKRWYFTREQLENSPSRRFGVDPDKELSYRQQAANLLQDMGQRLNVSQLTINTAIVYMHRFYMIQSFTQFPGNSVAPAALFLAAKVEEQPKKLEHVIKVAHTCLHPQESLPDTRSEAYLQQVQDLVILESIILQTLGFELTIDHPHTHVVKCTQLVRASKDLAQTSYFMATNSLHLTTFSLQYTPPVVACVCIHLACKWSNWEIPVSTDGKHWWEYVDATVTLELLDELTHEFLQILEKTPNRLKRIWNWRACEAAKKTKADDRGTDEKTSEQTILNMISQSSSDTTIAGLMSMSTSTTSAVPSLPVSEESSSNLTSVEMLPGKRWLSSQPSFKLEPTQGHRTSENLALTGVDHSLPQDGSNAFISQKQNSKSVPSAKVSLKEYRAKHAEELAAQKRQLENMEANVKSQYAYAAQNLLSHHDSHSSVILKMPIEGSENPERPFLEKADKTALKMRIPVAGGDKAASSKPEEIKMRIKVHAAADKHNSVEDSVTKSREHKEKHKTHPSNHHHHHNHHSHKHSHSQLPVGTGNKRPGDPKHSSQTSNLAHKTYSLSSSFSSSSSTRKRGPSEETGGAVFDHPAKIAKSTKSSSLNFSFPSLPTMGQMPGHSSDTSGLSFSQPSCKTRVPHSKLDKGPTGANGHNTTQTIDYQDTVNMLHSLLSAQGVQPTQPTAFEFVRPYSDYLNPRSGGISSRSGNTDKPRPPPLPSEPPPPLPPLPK

SMILES | selectivity to CDK9 over CDK2 (in words)
Fc1cnc(Nc2cccc(N3CCOCC3)c2)nc1Nc1c(F)cccc1F [Compound 6d] | moderate selectivity to CDK9 over CDK2
O=C(Nc1cccc(Nc2ncc(F)c(Nc3ccc(F)cc3)n2)c1)c1ccncc1 [Compound 9d] | moderate selectivity to CDK9 over CDK2

test system: HIV-1 NL4-3; experiment: Anti-HIV-1 assay; type: cell-based; details: HIV-1 NL4-3, MT4 cells

SMILES | inhibition in anti-HIV-1 assay (in words)
Fc1cnc(Nc2cccc(N3CCOCC3)c2)nc1Nc1c(F)cccc1F [Compound 6d] | Appreciable inhibition
CC(=O)N1CCCN(C(=O)c2cccc(Nc3ncc(F)c(Nc4ccc(F)cc4)n3)c2)CC1 [Compound 11e] | Appreciable inhibition
CN(C)CCNC(=O)c1cccc(Nc2ncc(F)c(Nc3ccc(F)cc3)n2)c1 [Compound 11f] | Appreciable inhibition
